Measurements reported in patent US11484525B2 (priority 2015, dated 2022).
Entries after “also recorded” stand apart in the source; their conditions may differ.

Tests used:
[1] = biological target: T1, μOR (Homo sapiens (Human), UniProt P35372); format: cell-based
[2] = biological target: MOR (Homo sapiens (Human), UniProt P35372); assay: MOR functional annotations (method not given); details: for MOR agonist (potency annotation under structure): Table 4 caption line; for functional classification given with the label: binding table, compound cell
[3] = biological target: hMOR + Gqi5 (Homo sapiens (Human), UniProt P35372); assay: IP accumulation assay hMOR + Gqi5; format: cell-based; details: % morphine, at 10 μM
[4] = biological target: T1, μOR; assay: Radioligand competition binding vs 3H-diprenorphine at μOR
[5] = biological target: T2, κOR (Homo sapiens (Human), UniProt P41145); assay: Radioligand binding at κOR (PDSP); details: Table 2; no Ki, below 50%
[6] = biological target: nociceptin receptor (Homo sapiens (Human), UniProt P41146); assay: Gi/o Glosensor assay at nociceptin receptor; format: cell-based
[7] = biological target: T1, μOR; assay: β-arrestin2 recruitment by BRET with GRK2 co-expression; format: cell-based
[8] = biological target: T2, κOR; assay: Gi/o Glosensor assay at κOR; format: cell-based
[9] = biological target: T1, μOR; assay: β-arrestin2 recruitment by BRET without GRK2; format: cell-based; details: no GRK2
[10] = test system: C57BL/6J mice; assay: Tail-flick analgesia; details: mouse, in vivo
[11] = biological target: T1, μOR; assay: Receptor internalization (PathHunter, U2OS); format: cell-based; details: compared to DAMGO and morphine
[12] = Pharmacokinetics, serum and brain levels; details: mouse, in vivo
Procedure: Studies were performed by the Preclinical Therapeutics Core and the Drug Studies Unit at the University of California San Francisco. […] All studies were performed with approved mouse protocols from the institutional animal care and use committees.

[13] = biological target: T1, μOR; assay: β-arrestin recruitment, PathHunter enzyme complementation (OPRM1 CHO-K1); format: cell-based
[14] = test system: C57BL/6J mice; assay: Hot-plate analgesia; format: in vivo, mouse
[15] = test system: mice; assay: Formalin injection assay; details: mouse, in vivo
[16] = Metabolism by mouse liver microsomes; format: in vitro ADME; details: signaling experiments with resulting metabolite pool
[17] = biological target: T1, μOR; assay: Calcium release (FLIPR); format: cell-based
Procedure: Calcium release was measured using a FLIPR^TETRA fluorescence imaging plate reader (Molecular Devices). Calcium release experiments were run in parallel to Gi/o Glosensor experiments with the same HEKT cells transfected with μOR, except cells for FLIPR were plated in poly-lysine coated 384-well black clear bottom cell culture plates. […] Dye was incubated for 1 hour at 37° C. Afterwards, cells were equilibrated to room temperature, and fluorescence in each well was read for the initial 10 seconds to establish a baseline. Afterwards, 10 μL of drug (3×) was added per well and the maximum-fold increase in fluorescence was determined as fold-over-baseline. Drug solutions used for the FLIPR assay were exactly the same as used for Gi/o Glosensor experiments. To activate endogenous Gq-coupled receptors as a positive control for calcium release, TFLLR-NH2 (10 μM, PAR-1 selective agonist) was used.

[18] = test system: Oprm1−/− and wild-type C57Bl/6J mice; assay: Hot plate: affective/reflexive subcategorization and μOR knockout mice; format: in vivo, mouse
[19] = biological target: T1, μOR; assay: BRET-based cAMP accumulation assay (CAMYEL) for SAR of PZM21-29; format: cell-based; details: Gi/o signaling, FIG. 4 analogs
[20] = biological target: T1, μOR; assay: Radioligand depletion assay for irreversible binding, wild-type μOR
[21] = test system: mice; assay: Whole body plethysmography (respiration); details: equianalgesic doses: PZM21 40 mg/kg, TRV130 […], morphine 10 mg/kg

SMILES: C[C@H](Cc1ccsc1)NC(=O)NC[C@H](Cc1ccc(O)cc1)N(C)C [(S,R)-21, 1-[(S)-2-(Dimethylamino)-3-(4-hydroxyphenyl)propyl]-3-((R)-1-(thiophen-3-yl)propan-2-yl)urea]
- Gi/o activation / μOR agonist activity [1]: more potent partial agonist of the μOR

SMILES: C[C@@H](Cc1ccsc1)NC(=O)NC[C@H](Cc1ccccc1)N(C)C [(S,S)-12, 1-[(S)-2-(Dimethylamino)-3-phenylpropyl]-3-[(S)-1-(thiophen-3-yl)propan-2-yl]urea]
- MOR agonist (potency annotation under structure) [2]: (S,S)-12 12 nM MOR agonist

SMILES: Cc1cc(O)cc(C)c1C[C@@H](CNC(=O)N[C@H](C)Cc1ccsc1)N(C)C [BD 131LR, 1-((S)-2-(dimethylamino)-3-(4-hydroxy-2,6-dimethylphenyl)propyl)-3-((R)-1-(thiophen-3-yl)propan-2-yl)urea]
- hMOR + Gqi5 IP accumulation assay efficacy a @ 10 μM [3]: @ 10 μMa: 10%

SMILES: CC(C)[C@H](CNC(=O)c1ccc([N+](=O)[O-])s1)N1CCc2ccccc2C1 [Compound 8]
- Gi/o activation / μOR agonist activity [1]: activated Gi/o

SMILES: O=C(Cc1cn2ccccc2n1)NCC1(c2ccccc2)CCC1 [Compound 9]
- μOR Ki column, given as <50% [4]: <50%

SMILES: CN(Cc1nnc(C2CC2)n1C)C(=O)NC[C@@H](Cc1ccccc1)N(C)C [Compound 10]
- κOR Ki, given as <50% [5]: <50%

SMILES: CN(C)[C@@H](CNC(=O)NC[C@@H](O)c1cnn(C)c1)Cc1ccccc1 [Compound 11]
- κOR Ki, given as <50% [5]: <50%

SMILES: Cc1nc(CNC(=O)NC[C@@H](Cc2ccccc2)N(C)C)sc1C [Compound 15]
- κOR Ki, given as <50% [5]: <50%

SMILES: CN(C)[C@H](CNC(=O)NCCc1ccsc1)Cc1ccc(O)cc1 [DD 16, (S)-1-(2-(dimethylamino)-3-(4-hydroxyphenyl)propyl)-3-(2-(thiophen-3-yl)ethyl)urea]
- MOR agonist (potency annotation under structure) [2]: (23) 58 nM MOR agonist

SMILES: Cc1cc(O)cc(C)c1C[C@@H](CNC(=O)NCCc1ccsc1)N(C)C [DD 34L, (S)-1-(2-(dimethylamino)-3-(4-hydroxy-2,6-dimethylphenyl)propyl)-3-(2-(thiophen-3-yl)ethyl)urea]
- functional classification given with the label [2]: DD 34L (ANTAGONIST) [drawing 449]

SMILES: Cc1cc(O)cc(C)c1C[C@@H](CNC(=O)NCCN1C(=O)C=CC1=O)N(C)C [DD 144, (S)-1-(2-(dimethylamino)-3-(4-hydroxy-2,6-dimethylphenyl)propyl)-3-(2-(2,5-dioxo-2,5-dihydro-1H-pyrrol-1-yl)ethyl)urea]
- functional classification given with the label [2]: DD 144 (ANTAGONIST, Covalent) [drawing 455]

SMILES: C[C@@H](Cc1ccsc1)NC(=O)NC[C@H](Cc1ccc(O)cc1)N(C)C [PZM21, 1-[(S)-2-(Dimethylamino)-3-(4-hydroxyphenyl)propyl]-3-((S)-1-(thiophen-3-yl)propan-2-yl)urea]
- nociceptin receptor agonist activity [6]: no detectable
- arrestin recruitment with over-expressed GRK2 [7]: weak arrestin recruitment efficacy; also recorded: we observe arrestin recruitment
- κOR agonist activity [8]: no detectable
- mode of action at κOR ([8]; antagonist mode): antagonist
- β-arrestin2 recruitment in the absence of GRK2 [9]: no β-arrestin2 recruitment
- tail-flick analgesia [10]: no activity; also recorded: no analgesic effect
- μOR internalization [11]: minimal level
- blood brain barrier penetration [12]: substantial fraction
- β-arrestin2 recruitment in PathHunter assay [13]: undetectable; also recorded: minimal recruitment; also recorded: no detectable
- hot-plate % MPE ([14]; 15 minutes after highest dose tested, s.c.): 87%
- hot-plate analgesia ([14]; mouse, in vivo): dose-dependent analgesia
- formalin injection nociception [15]: active
- μOR activation by metabolite pool [16]: no evidence of a metabolite with more potent activation of the μOR
- calcium release [17]: no activity
- analgesic response in μOR knockout mice ([18]; Oprm1−/− mice, hot plate): completely ablates
- affective vs reflexive component of pain ([18]; hot plate 52.5° C.): only modulates the affective component of pain; also recorded: solely confers analgesia to the affective component of pain

SMILES: CN(CC1CC1)[C@H](CNC(=O)NCCc1ccccc1)Cc1ccc(O)cc1 [PZM27, (S)-1-(2-((Cyclopropylmethyl)(methyl)amino)-3-(4-hydroxyphenyl)propyl)-3-phenethylurea×CF3COOH]
- efficacy and potency as agonist [19]: decreased efficacy
- loss of potency relative to parent [19]: 30 fold

SMILES: CN(C=O)[C@H](CNC(=O)NCCc1ccccc1)Cc1ccc(O)cc1 [PZM28, (S)—N-(1-(4-Hydroxyphenyl)-3-(3-phenethylureido)propan-2-yl)-N-methylformamide]
- loss of potency relative to parent [19]: 1000 fold

SMILES: CN(C)[C@H](CNC(=O)NCCc1cn(CCSSCCN=[N+]=[N-])nn1)Cc1ccc(O)cc1 [PZM29, (S)-1-(2-(1-(2-((2-Azidoethyl)disulfanyl)ethyl)-1H-1,2,3-triazol-4-yl)ethyl)-3-(2-(dimethylamino)-3-(4-hydroxyphenyl)propyl)urea×CF3COOH]
- irreversible binding to wild-type μOR [20]: not the wild-type receptor
- efficacy and potency as agonist [19]: retains its efficacy as an agonist

SMILES: COc1ccsc1CNCC[C@@]1(c2ccccn2)CCOC2(CCCC2)C1 [TRV130, reference compound]
- arrestin recruitment with over-expressed GRK2 [7]: we observe arrestin recruitment
- respiration frequency / respiratory depression [21]: significantly depresses respiration at 15 minutes
- β-arrestin2 recruitment in the absence of GRK2 [9]: no β-arrestin2 recruitment
